Experimental data published in BigSolDB 2.1.

COC1=CC(=O)C[C@@H](C)[C@]12Oc1c(Cl)c(OC)cc(OC)c1C2=O
Details	solubility (mole fraction)
in 1,2-dichloroethane, 290.05 K	0.0197
in 1,2-dichloroethane, 294.3 K	0.0209
in 1,2-dichloroethane, 300.25 K	0.0222
in 1,2-dichloroethane, 305.55 K	0.0236
in 1,2-dichloroethane, 310.05 K	0.0251
in 1,2-dichloroethane, 315.65 K	0.0268
in 1,2-dichloroethane, 319.35 K	0.0289
in 1,2-dichloroethane, 324.05 K	0.0311
in 1,2-dichloroethane, 329.65 K	0.0335
in 2-butanone, 289.65 K	0.00826
in 2-butanone, 296.95 K	0.00941
in 2-butanone, 302.95 K	0.0103
in 2-butanone, 308.25 K	0.0117
in 2-butanone, 315.05 K	0.0128
in 2-butanone, 320.4 K	0.0141
in 2-butanone, 325.45 K	0.0151
in 2-butanone, 330.35 K	0.0163
in DMAc, 296.2 K	0.0252
in DMAc, 301.25 K	0.0276
in DMAc, 305.75 K	0.0303
in DMAc, 310.75 K	0.0326
in DMAc, 314.95 K	0.0344
in DMAc, 319.25 K	0.0369
in DMAc, 324.75 K	0.0395
in DMAc, 330.05 K	0.0422
in DMAc, 336.15 K	0.0452
in DMAc, 340.25 K	0.0488
in DMAc, 345.75 K	0.0518
in DMAc, 350.55 K	0.0549
in DMAc, 354.78 K	0.0582
in DMSO, 296.75 K	0.0167
in DMSO, 301.15 K	0.0186
in DMSO, 306.15 K	0.0204
in DMSO, 310.85 K	0.0218
in DMSO, 315.55 K	0.0239
in DMSO, 320.55 K	0.026
in DMSO, 326.55 K	0.0282
in DMSO, 331.95 K	0.0302
in DMSO, 336.75 K	0.0324
in DMSO, 341.05 K	0.0345
in DMSO, 346.25 K	0.0368
in DMSO, 351.7 K	0.0393
in DMSO, 357.6 K	0.0415
in NMP, 295.55 K	0.0421
in NMP, 300.65 K	0.0451
in NMP, 305.75 K	0.048
in NMP, 310 K	0.0511
in NMP, 315.1 K	0.0541
in NMP, 320.6 K	0.057
in NMP, 325.45 K	0.0601
in NMP, 330.45 K	0.0631
in NMP, 335.55 K	0.0666
in NMP, 340.35 K	0.0704
in NMP, 345.55 K	0.0758
in NMP, 350.35 K	0.0795
in NMP, 355.65 K	0.083
in acetone, 281.95 K	0.00648
in acetone, 286.4 K	0.0071
in acetone, 291.85 K	0.00776
in acetone, 296.4 K	0.00853
in acetone, 300.8 K	0.00941
in acetone, 305.05 K	0.0102
in acetone, 310.25 K	0.0117
in acetone, 313.65 K	0.0129
in acetone, 317.05 K	0.0143
